How the values were obtained:
[1] = molecular target: GST-tagged human ROCK1 catalytic domain 1-477 (Homo sapiens (Human), UniProt Q13464); assay: Inhibition of Rho-associated protein kinase isoform 1 (LANCE Ultra ULight-CREBtide FRET kinase assay); format: biochemical; details: 30 μM was the highest concentration analyzed
Experimental: (§1) Exemplary compounds were tested for ability to inhibit Rho-associated protein kinase isoform 1 (ROCK1) and Rho-associated protein kinase isoform 2 (ROCK2). Assay procedures and results are described below.
(§2) Protein constructs were purified from a baculovirus expression system. The peptide substrate was fluorescent LANCE® Ultra ULight-CREBtide: […] (PerkinElmer, # TRF0107-D). […] After a 90 minute incubation at room temperature on a shaker table, the kinase reaction was stopped by addition of 10 mM EDTA, and phosphorylation of the substrate was detected by adding 1 nM LANCE® Ultra Europium-anti-phospho-CREB (ser133) antibody (PerkinElmer, # TRF0200-D) and incubating for 60 minutes on a shaker at room temperature. The flurorescence resonance energy transfer (FRET) signals were read and analyzed on an Envision™ 2103 Multilabel Reader (Perkin Elmer).

[2] = molecular target: GST-tagged human ROCK2 catalytic domain 1-553 (Homo sapiens (Human), UniProt O75116); assay: Inhibition of Rho-associated protein kinase isoform 2 (LANCE Ultra ULight-CREBtide FRET kinase assay); format: biochemical; details: for IC50: 30 μM was the highest concentration analyzed; for Selectivity for ROCK2 over ROCK1 (IC50 ROCK1 / IC50 ROCK2): selectivity ROCK2 vs ROCK1
Experimental: as §1, §2

Chain of GST-tagged human ROCK2 catalytic domain 1-553 (O75116 1-553): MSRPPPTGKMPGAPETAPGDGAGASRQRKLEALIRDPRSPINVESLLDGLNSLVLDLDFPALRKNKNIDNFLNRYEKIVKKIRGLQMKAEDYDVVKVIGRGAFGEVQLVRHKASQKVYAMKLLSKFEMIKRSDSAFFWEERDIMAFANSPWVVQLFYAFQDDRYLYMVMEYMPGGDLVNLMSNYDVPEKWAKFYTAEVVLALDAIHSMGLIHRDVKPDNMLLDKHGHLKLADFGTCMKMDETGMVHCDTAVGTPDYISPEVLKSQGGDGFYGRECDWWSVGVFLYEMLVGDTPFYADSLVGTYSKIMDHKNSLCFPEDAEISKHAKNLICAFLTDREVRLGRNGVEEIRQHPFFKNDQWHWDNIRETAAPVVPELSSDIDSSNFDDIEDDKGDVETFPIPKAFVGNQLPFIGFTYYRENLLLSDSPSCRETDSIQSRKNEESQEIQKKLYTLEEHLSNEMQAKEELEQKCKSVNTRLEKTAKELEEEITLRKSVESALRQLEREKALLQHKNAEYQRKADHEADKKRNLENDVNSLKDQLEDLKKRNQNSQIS
Chain of GST-tagged human ROCK1 catalytic domain 1-477 (Q13464 1-477): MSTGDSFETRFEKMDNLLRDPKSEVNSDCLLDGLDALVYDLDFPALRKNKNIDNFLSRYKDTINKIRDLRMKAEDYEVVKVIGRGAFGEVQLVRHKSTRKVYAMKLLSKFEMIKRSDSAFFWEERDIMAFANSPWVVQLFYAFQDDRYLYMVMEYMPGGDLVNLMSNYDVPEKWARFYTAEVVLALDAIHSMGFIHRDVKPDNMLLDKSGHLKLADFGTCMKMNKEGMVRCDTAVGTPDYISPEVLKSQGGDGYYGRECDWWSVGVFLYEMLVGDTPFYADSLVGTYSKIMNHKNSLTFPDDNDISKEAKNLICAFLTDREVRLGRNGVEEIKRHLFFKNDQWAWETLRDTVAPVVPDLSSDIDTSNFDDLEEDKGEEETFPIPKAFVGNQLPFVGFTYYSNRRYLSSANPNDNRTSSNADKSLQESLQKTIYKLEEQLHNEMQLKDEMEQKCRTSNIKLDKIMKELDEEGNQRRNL

Structure (SMILES) | IC50 [1] [µM] | IC50 [2] [µM] | Selectivity for ROCK2 over ROCK1 (IC50 ROCK1 / IC50 ROCK2) [2]
CC(C(=O)Nc1cc(-c2nnc(Nc3ccc4[nH]ncc4c3Cl)s2)ccn1)c1ccc(F)cc1 (stereo not shown) [Example 34, N-(4-(5-((4-Chloro-1H-indazol-5-yl)amino)-1,3,4-thiadiazol-2-yl)pyridin-2-yl)-2-(4-fluorophenyl)propanamide] | < 1 | < 1 | >50
C[C@H](N)C(=O)Nc1cccc(-c2nnc(Nc3ccc4[nH]ncc4c3Cl)s2)c1 [Example 35AA] | 1 to 15 | < 1 | >5
O=C(Nc1cccc(-c2nnc(Nc3ccc4[nH]ncc4c3Cl)s2)c1)C1CCNCC1 [Example 35AC] | 1 to 15 |  | 
O=C(Nc1cccc(-c2nnc(Nc3ccc4[nH]ncc4c3Cl)s2)c1)C1CNC1 [Example 35AD] | 1 to 15 | < 1 | >5
CC(=O)Nc1cc(-c2nnc(Nc3ccc4[nH]ncc4c3Cl)s2)ccn1.O=C(O)C(F)(F)F [Example 35AE] | < 1 | < 1 | <5
CC(=O)Cc1cccc(-c2nnc(Nc3ccc4[nH]ncc4c3Cl)s2)c1 [Example 35AF] | 1 to 15 | < 1 | >5
CC(=O)Oc1cccc(-c2nnc(Nc3ccc4[nH]ncc4c3Cl)s2)c1 [Example 35AG] | > 30 | < 1 | >100
CC(C(=O)Nc1cccc(-c2nnc(Nc3ccc4[nH]ncc4c3Cl)s2)c1)c1ccccn1 (stereo not shown) [Example 35AH] | < 1 | < 1 | <5
O=C(Cc1cccc(C(F)(F)F)n1)Nc1cccc(-c2nnc(Nc3ccc4[nH]ncc4c3Cl)s2)c1 [Example 35AI] | < 1 | < 1 | >5
OC1(c2cccc(-c3nnc(Nc4ccc5[nH]ncc5c4Cl)s3)c2)COC1 [Example 35AJ] | > 30 | < 1 | >75
N[C@@H](Cc1ccc(O)cc1)C(=O)Nc1cccc(-c2nnc(Nc3ccc4[nH]ncc4c3Cl)s2)c1.O=C(O)C(F)(F)F [Example 35AK] | < 1 | < 1 | <5
CC(=O)Nc1cccc(-c2nnc(Nc3ccc4[nH]ncc4c3C(F)(F)F)s2)c1 [Example 35AL] | 1 to 15 | < 1 | >5
CC(=O)c1cccc(-c2nnc(Nc3ccc4[nH]ncc4c3Cl)s2)c1 [Example 35AM] | > 30 | < 1 | >100
Cc1ccc(CC(=O)Nc2cccc(-c3nnc(Nc4ccc5[nH]ncc5c4Cl)s3)c2)nc1 [Example 35AO] | > 30 | < 1 | >100
O=C(Cc1ncccn1)Nc1cccc(-c2nnc(Nc3ccc4[nH]ncc4c3Cl)s2)c1 [Example 35AP] | < 1 | < 1 | <5
CC(C)(CO)NC(=O)c1cccc(-c2nnc(Nc3ccc4[nH]ncc4c3Cl)s2)c1 [Example 35AR] | 1 to 15 | < 1 | >5
O=C(Nc1cccc(-c2nnc(Nc3ccc4[nH]ncc4c3Cl)s2)c1)c1cc(O)cc(O)c1 [Example 35AS] | < 1 | < 1 | >50
COc1ncc(C(=O)Nc2cccc(-c3nnc(Nc4ccc5[nH]ncc5c4Cl)s3)c2)cn1.O=C(O)C(F)(F)F [Example 35AU] | > 30 | < 1 | >100
N[C@@H](Cc1ccccc1)C(=O)Nc1cccc(-c2nnc(Nc3ccc4[nH]ncc4c3Cl)s2)c1 [Example 35AV] | 1 to 15 | < 1 | >5
O=C(Nc1cccc(-c2nnc(Nc3ccc4[nH]ncc4c3Cl)s2)c1)c1ccc(F)cc1 [Example 35AW] | < 1 | < 1 | >5
O=C(O)Cn1cc(C(=O)Nc2cc(F)c(F)c(-c3nnc(Nc4ccc5[nH]ncc5c4)s3)c2)cn1 [Example 35AY] | > 30 | < 1 | >75
CC(=O)N(C)c1cccc(-c2nnc(Nc3ccc4[nH]ncc4c3Cl)s2)c1 [Example 35AZ] | > 30 | 1 to 15 | >5
O=C(Nc1cc(-c2nnc(Nc3ccc4[nH]ncc4c3Cl)s2)ccn1)N1CCOCC1 [Example 35A] | < 1 | < 1 | >5

Source: US10112935B2, “Indazolyl thiadiazolamines and related compounds for inhibition of Rho-associated protein kinase and the treatment of disease” (Lycera Corporation, priority 2015, dated 2018)
